The test deals with HeLa cells. In words: 2-AG accumulation assay using HeLa cells. It counts as cell-based. Conditions: for Emax at 10 µM: Homo sapiens, HeLa cell homogenate, 2-AG accumulation relative to MAFP; for Ex. 5 % MAFP @ 1 μM: 1 μM compound; for Ex. 5 % MAFP @ 1 μM / Ex. 5 % MAFP @10 μM: 2-AG relative to MAFP, HeLa homogenate; for Ex. 5 % MAFP @10 μM: 10 μM compound.
Where [1] appears, read: compound @10 μM (second of two columns with the same head), read-out: Ex. 5 % MAFP @10 μM (second column).
The mark [2] stands for this setting: compound @10 μM as printed (first of two columns with the same head), read-out: Ex. 5 % MAFP @10 μM (first column).

Read-outs that look alike come from different tables or passages of the source.

With `CN(c1ccc(C(=O)N2CC(N3CCN(c4ccccn4)CC3)C2)cc1)C1CCCCC1` [Compound #1, N-Cyclohexyl-N-methyl-4-{[3-(4-pyridin-2-ylpiperazin-1-yl)azetidin-1-yl]carbonyl}aniline], under setting [1], the Emax at 10 µM was 70.5%.

As for `O=C(c1ccc(N2CCCC2)cc1)N1CC(N2CCN(c3ncccn3)CC2)C1` [Compound #2, 2-(4-{1-[(4-Pyrrolidin-1-ylphenyl)carbonyl]azetidin-3-yl}piperazin-1-yl)pyrimidine], under setting [1], the Emax at 10 µM came out at 105%.

`O=C(c1ccc(Oc2ccccc2)cc1)N1CC(N2CCN(c3ncccn3)CC2)C1` [Compound #20, 2-(4-{1-[(4-Phenoxyphenyl)carbonyl]azetidin-3-yl}piperazin-1-yl)pyrimidine]: the Emax at 10 µM under setting [1] came to 71.9%.

Take `N#Cc1cccnc1N1CCN(C2CN(C(=O)c3ccc(C4CCCCC4)cc3)C2)CC1` [Compound #21, 2-(4-{1-[(4-Cyclohexylphenyl)carbonyl]azetidin-3-yl}piperazin-1-yl)pyridine-3-carbonitrile]: the Emax at 10 µM under setting [1] stood at 79.5%.

Turning to `CC(C)(C)c1nc2ccc(C(=O)N3CC(N4CCN(c5ccccn5)CC4)C3)cc2o1` [Compound #209], the “Ex. 5 % MAFP @ 1 μM” value came to 19.9 % MAFP and the “Ex. 5 % MAFP @10 μM” value was found to be 47.3 % MAFP.

For the compound `COc1ccc(-c2nc3cccc(C(=O)N4CC(N5CCN(c6ccccn6)CC5)C4)c3o2)cc1` [Compound #210], the “Ex. 5 % MAFP @10 μM” value is 79.5 % MAFP.

For `O=C(c1ccc2nc(C3CCCCC3)oc2c1)N1CC(N2CCN(c3ccccn3)CC2)C1` [Compound #211], the “Ex. 5 % MAFP @ 1 μM” value was found to be 39.7 % MAFP and the “Ex. 5 % MAFP @10 μM” value amounted to 100.8 % MAFP.

Take `CC(C)Cc1cc2cc(C(=O)N3CC(N4CCN(c5ccccn5)CC4)C3)ccc2n1CC(C)C` [Compound #212]: the “Ex. 5 % MAFP @10 μM” value worked out at 72.9 % MAFP.

As to `CCCc1cc2cc(C(=O)N3CC(N4CCN(c5ccccn5)CC4)C3)ccc2n1C` [Compound #213], the “Ex. 5 % MAFP @10 μM” value stood at 61.1 % MAFP.

With `CC(C)Cn1c(-c2ccccc2)cc2cc(C(=O)N3CC(N4CCN(c5ccccn5)CC4)C3)ccc21` [Compound #214], the “Ex. 5 % MAFP @10 μM” value is on record as 93.5 % MAFP.

As for `COc1cccc(-c2nc3cc(C(=O)N4CC(N5CCN(c6ccccn6)CC5)C4)ccc3o2)c1` [Compound #216], the “Ex. 5 % MAFP @10 μM” value was 86.9 % MAFP.

On to `O=C(c1ccc(N2CCCCCC2)cc1)N1CC(N2CCN(c3ccccn3)CC2)C1` [compound 3, 1-(4-{[3-(4-Pyridin-2-ylpiperazin-1-yl)azetidin-1-yl]carbonyl}phenyl)azepane], for which the Emax at 10 µM under setting [1] stood at 67.3%.

`O=C(c1ccc(-c2cccc(C(F)(F)F)c2)cc1)N1CC(N2CCN(c3ncccn3)CC2)C1` [compound 4, 2-[4-(1-{[3′-(Trifluoromethyl)biphenyl-4-yl]carbonyl}azetidin-3-yl)piperazin-1-yl]pyrimidine]: the Emax at 10 µM under setting [1] came out at 112%.

Regarding `COc1ccc(-c2ccc(C(=O)N3CC(N4CCN(c5ncccn5)CC4)C3)cc2)cc1` [compound 5, 2-(4-{1-[(4′-Methoxybiphenyl-4-yl)carbonyl]azetidin-3-yl}piperazin-1-yl)pyrimidine], the Emax at 10 µM under setting [1] worked out at 98.8%.

For `O=C(c1ccc(C2CCCCC2)cc1)N1CC(N2CCN(c3nccs3)CC2)C1` [compound 6, 1-{1-[(4-Cyclohexylphenyl)carbonyl]azetidin-3-yl}-4-(1,3-thiazol-2-yl)piperazine], the Emax at 10 µM turned out to be 41.5% under setting [1] and 24.3% under setting [2].

As to `O=C(c1ccc(-c2ccccc2Cl)cc1)N1CC(N2CCN(c3ncccn3)CC2)C1` [compound 8, 2-(4-{1-[(2′-Chlorobiphenyl-4-yl)carbonyl]azetidin-3-yl}piperazin-1-yl)pyrimidine], the Emax at 10 µM under setting [1] is 58.3%.

`O=C(c1ccc(-c2ccc(F)cc2)cc1)N1CC(N2CCN(c3ncccn3)CC2)C1` [compound 9, 2-(4-{1-[(4′-Fluorobiphenyl-4-yl)carbonyl]azetidin-3-yl}piperazin-1-yl)pyrimidine]: the Emax at 10 µM under setting [1] is 81%.

Regarding `O=C(c1ccc2nc(C3CCCCC3)oc2c1)N1CC(N2CCN(c3ncccn3)CC2)C1` [compound 10, 2-Cyclohexyl-6-{[3-(4-pyrimidin-2-ylpiperazin-1-yl)azetidin-1-yl]carbonyl}-1,3-benzoxazole], the Emax at 10 µM under setting [1] was found to be 115% and the Emax at 10 µM under setting [2] was 97.8%.

In the case of `O=C(c1ccc(-c2ccc(Cl)c(Cl)c2)cc1)N1CC(N2CCN(c3ncccn3)CC2)C1` [compound 11, 2-(4-{1-[(3′,4′-Dichlorobiphenyl-4-yl)carbonyl]azetidin-3-yl}piperazin-1-yl)pyrimidine], the Emax at 10 µM under setting [1] was found to be 55.2%.

Regarding `Cc1nc2cc(C(=O)N3CC(N4CCN(c5ncccn5)CC4)C3)ccc2n1-c1ccccc1` [compound 14, 2-Methyl-1-phenyl-5-{[3-(4-pyrimidin-2-ylpiperazin-1-yl)azetidin-1-yl]carbonyl}-1H-benzimidazole], under setting [1], the Emax at 10 µM came to 106%.

On to `O=C(c1ccc(C2CCCCC2)cc1)N1CC(N2CCN(c3ccccn3)CC2)C1` [compound 15, 1-{1-[(4-Cyclohexylphenyl)carbonyl]azetidin-3-yl}-4-pyridin-2-ylpiperazine], for which the Emax at 10 µM under setting [1] came out at 47.6%.

For `CC(C)n1c(C(F)(F)F)nc2cc(C(=O)N3CC(N4CCN(c5ncccn5)CC4)C3)ccc21` [compound 16, 1-(1-Methylethyl)-5-{[3-(4-pyrimidin-2-ylpiperazin-1-yl)azetidin-1-yl]carbonyl}-2-(trifluoromethyl)-1H-benzimidazole], under setting [1], the Emax at 10 µM was 91.5%.

For the compound `Cc1nc2cc(C(=O)N3CC(N4CCN(c5ncccn5)CC4)C3)ccc2n1C1CCCCC1` [compound 17, 1-Cyclohexyl-2-methyl-5-{[3-(4-pyrimidin-2-ylpiperazin-1-yl)azetidin-1-yl]carbonyl}-1H-benzimidazole], under setting [1], the Emax at 10 µM amounted to 83.9%.

On to `CN(c1ccccc1)c1ccc(C(=O)N2CC(N3CCN(c4ccccn4)CC3)C2)cc1` [compound 18, N-Methyl-N-phenyl-4-{[3-(4-pyridin-2-ylpiperazin-1-yl)azetidin-1-yl]carbonyl}aniline], for which the Emax at 10 µM under setting [1] came to 66.2%.

Consider `N#Cc1cccnc1N1CCN(C2CN(C(=O)c3ccc(-c4ccccc4)cc3)C2)CC1` [compound 23, 2-(4-[1-(Biphenyl-4-ylcarbonyl)azetidin-3-yl]piperazin-1-yl}pyridine-3-carbonitrile], for which the Emax at 10 µM under setting [1] was 96.8%.

Take `O=C(c1ccc(Cc2ccccc2)cc1)N1CC(N2CCN(c3ncccn3)CC2)C1` [compound 24, 2-(4-{1-[(4-Benzylphenyl)carbonyl]azetidin-3-yl}piperazin-1-yl)pyrimidine]: the Emax at 10 µM under setting [1] worked out at 81.9%.

In the case of `O=C(c1ccc(-n2cccc2)cc1)N1CC(N2CCN(c3ncccn3)CC2)C1` [compound 25, 2-[4-(1-{[4-(1H-Pyrrol-1-yl)phenyl]carbonyl}azetidin-3-yl)piperazin-1-yl]pyrimidine], the Emax at 10 µM under setting [1] is 87.7%.

Consider `O=C(c1ccc(-c2ccccc2)c(F)c1)N1CC(N2CCN(c3ncccn3)CC2)C1` [compound 26, 2-(4-{1-[(2-Fluorobiphenyl-4-yl)carbonyl]azetidin-3-yl}piperazin-1-yl)pyrimidine], for which the Emax at 10 µM under setting [1] came to 125%.

For `O=C(Nc1ccc(C(=O)N2CC(N3CCN(c4ccccn4)CC3)C2)cc1)C1CCCCC1` [compound 27, N-(4-{[3-(4-Pyridin-2-ylpiperazin-1-yl)azetidin-1-yl]carbonyl}phenyl)cyclohexanecarboxamide], the Emax at 10 µM was determined as 110% under setting [1] and 66.2% under setting [2].

`CN(C)c1ccc(C(=O)N2CC(N3CCN(c4ncccn4)CC3)C2)cc1` [compound 28, N,N-Dimethyl-4-{[3-(4-pyrimidin-2-ylpiperazin-1-yl)azetidin-1-yl]carbonyl}aniline]: the Emax at 10 µM under setting [1] was 82.2%.

As for `CC1(C)CCC(C)(C)c2cc(CCC(=O)N3CC(N4CCN(c5ccccn5)CC4)C3)ccc21` [compound 29, 1-Pyridin-2-yl-4-{1-[3-(5,5,8,8-tetramethyl-5,6,7,8-tetrahydronaphth-2-yl)propanoyl]azetidin-3-yl}piperazine], the Emax at 10 µM under setting [1] came out at 76.5%.

As for `O=C(c1ccc(Cc2ccccc2)cc1)N1CC(N2CCN(c3ccccn3)CC2)C1` [compound 30, 1-{1-[(4-Benzylphenyl)carbonyl]azetidin-3-yl}-4-pyridin-2-ylpiperazine], the Emax at 10 µM is 37.3% under setting [1] and 34.7% under setting [2].

Consider `CCCn1ccc2cc(C(=O)N3CC(N4CCN(c5ccccn5)CC4)C3)ccc21` [compound 31, 1-Propyl-5-{[3-(4-pyridin-2-ylpiperazin-1-yl)azetidin-1-yl]carbonyl}-1H-indole], for which the Emax at 10 µM under setting [1] was 69.5%.

Consider `O=C(c1ccc(C2CCCCC2)cc1)N1CC(N2CCN(c3noc4ccccc34)CC2)C1` [compound 33, 3-(4-{1-[(4-Cyclohexylphenyl)carbonyl]azetidin-3-yl}piperazin-1-yl)-1,2-benzisoxazole], for which the Emax at 10 µM runs as follows: under setting [1], 33%; under setting [2], 17.5%.

Consider `CCCCc1ccc(C(=O)N2CC(N3CCN(c4ccccn4)CC3)C2)cc1` [compound 35, 1-{1-[(4-Butylphenyl)carbonyl]azetidin-3-yl}-4-pyridin-2-ylpiperazine], for which the Emax at 10 µM under setting [1] was 66.7%.

With `O=C(c1ccc(-c2ccccc2)cc1)N1CC(N2CCN(c3nccs3)CC2)C1` [compound 36, 1-[1-(Biphenyl-4-ylcarbonyl)azetidin-3-yl]-4-(1,3-thiazol-2-yl)piperazine], the Emax at 10 µM under setting [1] came out at 91.3%.

Take `CCN(CC)c1ccc(C(=O)N2CC(N3CCN(c4ccccn4)CC3)C2)cc1` [compound 37, N,N-Diethyl-4-{[3-(4-pyridin-2-ylpiperazin-1-yl)azetidin-1-yl]carbonyl}aniline]: the Emax at 10 µM turned out to be 65.9% under setting [1] and 32% under setting [2].

Values taken from patent US20130184251A1, “HETEROAROMATIC AND AROMATIC PIPERAZINYL AZETIDINYL AMIDES AS MONOACYLGLYCEROL LIPASE INHIBITORS” (Janssen Pharmaceutica, NV, priority 2009, published 2013).
